{"source": "ChEMBL document CHEMBL5352433", "about": "“Design, synthesis, and biological evaluation of low-toxic lappaconitine derivatives as potential analgesics” (Eur J Med Chem, 2022)", "key": {"[1]": {"biological_target": "T1, Voltage-gated inwardly rectifying potassium channel KCNH2 (Homo sapiens, UniProt Q12809)", "T1 sequence (Q12809 whole entry)": "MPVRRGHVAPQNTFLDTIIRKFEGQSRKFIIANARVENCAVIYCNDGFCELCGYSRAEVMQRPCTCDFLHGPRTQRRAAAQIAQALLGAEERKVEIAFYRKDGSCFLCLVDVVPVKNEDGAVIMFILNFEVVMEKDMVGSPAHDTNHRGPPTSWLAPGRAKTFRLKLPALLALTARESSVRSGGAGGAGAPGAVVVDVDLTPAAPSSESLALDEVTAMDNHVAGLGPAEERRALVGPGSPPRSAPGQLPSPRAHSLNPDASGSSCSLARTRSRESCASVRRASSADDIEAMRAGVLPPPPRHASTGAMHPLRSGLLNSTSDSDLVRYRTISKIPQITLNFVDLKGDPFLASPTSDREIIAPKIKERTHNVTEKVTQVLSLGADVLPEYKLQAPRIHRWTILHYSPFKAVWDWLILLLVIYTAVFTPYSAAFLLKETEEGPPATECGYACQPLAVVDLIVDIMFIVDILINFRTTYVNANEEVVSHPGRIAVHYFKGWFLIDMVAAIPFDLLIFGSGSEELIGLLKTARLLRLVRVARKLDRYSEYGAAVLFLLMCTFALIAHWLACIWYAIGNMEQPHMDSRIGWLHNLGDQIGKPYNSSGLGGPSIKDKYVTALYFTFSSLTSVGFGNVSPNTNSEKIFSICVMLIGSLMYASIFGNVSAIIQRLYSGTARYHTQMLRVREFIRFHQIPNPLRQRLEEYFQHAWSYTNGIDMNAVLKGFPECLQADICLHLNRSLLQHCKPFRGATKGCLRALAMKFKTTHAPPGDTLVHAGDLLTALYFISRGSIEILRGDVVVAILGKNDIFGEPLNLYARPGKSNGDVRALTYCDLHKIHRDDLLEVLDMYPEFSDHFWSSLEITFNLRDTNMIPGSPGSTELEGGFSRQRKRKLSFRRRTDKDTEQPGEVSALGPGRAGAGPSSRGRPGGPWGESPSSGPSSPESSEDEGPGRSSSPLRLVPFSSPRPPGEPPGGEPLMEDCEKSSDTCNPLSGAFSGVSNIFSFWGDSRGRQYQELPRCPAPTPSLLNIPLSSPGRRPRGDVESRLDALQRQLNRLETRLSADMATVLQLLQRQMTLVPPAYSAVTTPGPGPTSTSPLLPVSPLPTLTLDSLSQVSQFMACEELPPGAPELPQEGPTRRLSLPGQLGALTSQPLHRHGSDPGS", "assay": "Inhibition of hERG expressed in HEK cells assessed as Rb+ efflux ratio at 10 mg/L incubated for 4 mins (reference value: 79.71 to 94.98 %)", "format": "toxicity, cell-based", "set-up": "scale not given: the % may be the effect or the level left", "conditions": "at 10 µg/mL"}, "Mus musculus [2]": {"tested_on": "Mus musculus", "assay": "Analgesic activity against acetic acid-induced Kunming writhing mouse model assessed as inhibition of writhing at 10 mg/kg, sc pretreated with compound for 15 mins followed by acetic acid addition and measured after 15 mins relative to control", "format": "functional", "conditions": "0.5 h, time 30 min"}, "[3]": {"assay": "Acute toxicity in sc dosed Kunming mouse assessed as mortality rate measured after 24 hrs", "format": "organism-based", "conditions": "in vivo"}, "Mus musculus [4]": {"tested_on": "Mus musculus", "assay": "Analgesic activity against sc dosed acetic acid-induced Kunming writhing mouse model assessed as inhibition of writhing pretreated with compound for 15 mins followed by acetic acid addition and measured after 15 mins", "format": "functional", "conditions": "0.5 h, time 30 min"}, "[5]": {"assay": "Drug metabolism in sc dosed acetic acid-induced Kunming writhing mouse model assessed as metabolites in feces", "format": "ADME, organism-based", "conditions": "in vivo"}, "[6]": {"biological_target": "T1, Voltage-gated inwardly rectifying potassium channel KCNH2", "assay": "Inhibition of hERG expressed in HEK cells assessed as Rb+ efflux ratio at 100 mg/L incubated for 4 mins (reference value: 79.71 to 94.98 %)", "format": "toxicity, cell-based", "set-up": "scale not given: the % may be the effect or the level left", "conditions": "at 100 µg/mL"}, "[7]": {"assay": "Drug metabolism in sc dosed acetic acid-induced Kunming writhing mouse model assessed as metabolites in urine", "format": "ADME, organism-based", "conditions": "in vivo"}, "[8]": {"assay": "Therapeutic index, ratio of LD50 for acute toxicity in sc dosed Kunming mouse to ratio of ED50 for analgesic activity against sc dosed acetic acid-induced Kunming writhing mouse model", "format": "organism-based", "conditions": "in vivo, read-out: TI"}, "[9]": {"biological_target": "T1, Voltage-gated inwardly rectifying potassium channel KCNH2", "assay": "Inhibition of hERG expressed in HEK cells assessed as Rb+ efflux ratio at 1 mg/L incubated for 4 mins (reference value: 79.71 to 94.98 %)", "format": "toxicity, cell-based", "set-up": "scale not given: the % may be the effect or the level left", "conditions": "at 1 µg/mL"}, "Mus musculus [10]": {"tested_on": "Mus musculus", "assay": "Analgesic activity against acetic acid-induced Kunming writhing mouse model assessed as inhibition of writhing at 3.5 mg/kg, sc pretreated with compound for 15 mins followed by acetic acid addition and measured after 15 mins relative to control", "format": "functional", "conditions": "0.5 h, time 30 min"}}}
{"smiles": "CCN1C[C@]2(OC(=O)c3ccccc3NC(=O)c3ccc(N(C)C)cc3)CC[C@H](OC)[C@]34C1[C@H](C[C@H]23)[C@@]1(O)C[C@H](OC)[C@H]2C[C@@H]4[C@]1(O)[C@H]2OC", "values": [{"measurement": "Activity", "setting": "[1]", "value": 85.86, "unit": "%"}, {"measurement": "inhibition in vivo at 10 mg/kg", "setting": "Mus musculus [2]", "value": 62.1, "unit": "%"}, {"measurement": "LD50 at 24 h", "setting": "[3]", "value": 300, "unit": "mg/kg"}, {"measurement": "ED50", "setting": "Mus musculus [4]", "value": 6.2, "unit": "mg/kg"}, {"measurement": "Drug metabolism", "setting": "[5]", "value": "Metabolite_Detected"}, {"measurement": "Activity", "setting": "[6]", "value": 84.7, "unit": "%"}, {"measurement": "Drug metabolism", "setting": "[7]", "value": "Metabolite_Detected"}, {"measurement": "selectivity ratio", "setting": "[8]", "value": 48.5}, {"measurement": "Activity", "setting": "[9]", "value": 87.34, "unit": "%"}]}
{"smiles": "CCN1C[C@]2(OC(=O)c3ccccc3NC(=O)C3CC3)CC[C@H](OC)[C@]34C1[C@H](C[C@H]23)[C@@]1(O)C[C@H](OC)[C@H]2C[C@@H]4[C@]1(O)[C@H]2OC", "values": [{"measurement": "inhibition in vivo at 3.5 mg/kg", "setting": "Mus musculus [10]", "value": 33.5, "unit": "%"}]}
{"smiles": "CCN1C[C@]2(OC(=O)c3ccccc3NS(=O)(=O)c3ccccc3OC)CC[C@H](OC)[C@]34C1[C@H](C[C@H]23)[C@@]1(O)C[C@H](OC)[C@H]2C[C@@H]4[C@]1(O)[C@H]2OC", "values": [{"measurement": "Activity", "setting": "[1]", "value": 65.13, "unit": "%"}, {"measurement": "inhibition in vivo at 10 mg/kg", "setting": "Mus musculus [2]", "value": 71.2, "unit": "%"}, {"measurement": "LD50 at 24 h", "setting": "[3]", "value": 300, "unit": "mg/kg"}, {"measurement": "ED50", "setting": "Mus musculus [4]", "value": 5.5, "unit": "mg/kg"}, {"measurement": "Drug metabolism", "setting": "[5]", "value": "Metabolite_Detected"}, {"measurement": "Activity", "setting": "[6]", "value": 50.83, "unit": "%"}, {"measurement": "Drug metabolism", "setting": "[7]", "value": "Metabolite_Detected"}, {"measurement": "selectivity ratio", "setting": "[8]", "value": 54.5}, {"measurement": "Activity", "setting": "[9]", "value": 80.88, "unit": "%"}]}
{"smiles": "CCN1C[C@]2(OC(=O)c3ccccc3NS(=O)(=O)c3ccccc3)CC[C@H](OC)[C@]34C1[C@H](C[C@H]23)[C@@]1(O)C[C@H](OC)[C@H]2C[C@@H]4[C@]1(O)[C@H]2OC", "values": [{"measurement": "Activity", "setting": "[1]", "value": 72.11, "unit": "%"}, {"measurement": "inhibition in vivo at 10 mg/kg", "setting": "Mus musculus [2]", "value": 84.3, "unit": "%"}, {"measurement": "LD50 at 24 h", "setting": "[3]", "value": "> 600", "unit": "mg/kg"}, {"measurement": "ED50", "setting": "Mus musculus [4]", "value": 6.1, "unit": "mg/kg"}, {"measurement": "Drug metabolism", "setting": "[5]", "value": "Metabolite_Detected"}, {"measurement": "Activity", "setting": "[6]", "value": 44.12, "unit": "%"}, {"measurement": "Drug metabolism", "setting": "[7]", "value": "Metabolite_Detected"}, {"measurement": "selectivity ratio", "setting": "[8]", "value": "> 98.3"}, {"measurement": "Activity", "setting": "[9]", "value": 88.87, "unit": "%"}]}
{"smiles": "C/C=C/C(=O)Nc1ccccc1C(=O)O[C@@]12CC[C@H](OC)[C@]34C([C@H](C[C@H]13)[C@@]1(O)C[C@H](OC)[C@H]3C[C@@H]4[C@]1(O)[C@H]3OC)N(CC)C2", "values": [{"measurement": "inhibition in vivo at 3.5 mg/kg", "setting": "Mus musculus [10]", "value": 24.4, "unit": "%"}]}
{"smiles": "CCCOc1ccc(C(=O)Nc2ccccc2C(=O)O[C@@]23CC[C@H](OC)[C@]45C([C@H](C[C@H]24)[C@@]2(O)C[C@H](OC)[C@H]4C[C@@H]5[C@]2(O)[C@H]4OC)N(CC)C3)cc1", "values": [{"measurement": "inhibition in vivo at 10 mg/kg", "setting": "Mus musculus [2]", "value": 48.4, "unit": "%"}, {"measurement": "LD50 at 24 h", "setting": "[3]", "value": 214, "unit": "mg/kg"}, {"measurement": "ED50", "setting": "Mus musculus [4]", "value": 10.2, "unit": "mg/kg"}, {"measurement": "selectivity ratio", "setting": "[8]", "value": 20.9}]}
{"smiles": "CCN1C[C@]2(OC(=O)c3ccccc3NC(=O)c3ccc(OC)cc3)CC[C@H](OC)[C@]34C1[C@H](C[C@H]23)[C@@]1(O)C[C@H](OC)[C@H]2C[C@@H]4[C@]1(O)[C@H]2OC", "values": [{"measurement": "Activity", "setting": "[1]", "value": 76.58, "unit": "%"}, {"measurement": "inhibition in vivo at 10 mg/kg", "setting": "Mus musculus [2]", "value": 62.8, "unit": "%"}, {"measurement": "LD50 at 24 h", "setting": "[3]", "value": 296, "unit": "mg/kg"}, {"measurement": "ED50", "setting": "Mus musculus [4]", "value": 4.4, "unit": "mg/kg"}, {"measurement": "Activity", "setting": "[6]", "value": 69.69, "unit": "%"}, {"measurement": "selectivity ratio", "setting": "[8]", "value": 67.4}, {"measurement": "Activity", "setting": "[9]", "value": 77, "unit": "%"}]}
{"smiles": "CCN1C[C@]2(OC(=O)c3ccccc3N)CC[C@H](OC)[C@]34C1[C@H](C[C@H]23)[C@@]1(O)C[C@H](OC)[C@H]2C[C@@H]4[C@]1(O)[C@H]2OC", "values": [{"measurement": "Activity", "setting": "[1]", "value": 92.35, "unit": "%"}, {"measurement": "Activity", "setting": "[6]", "value": 65.7, "unit": "%"}, {"measurement": "Activity", "setting": "[9]", "value": 96.05, "unit": "%"}]}
{"smiles": "CCN1C[C@]2(OC(=O)c3ccccc3NC(C)=O)CC[C@H](OC)[C@]34C1[C@H](C[C@H]23)[C@@]1(O)C[C@H](OC)[C@H]2C[C@@H]4[C@]1(O)[C@H]2OC", "values": [{"measurement": "LD50 at 24 h", "setting": "[3]", "value": 11.7, "unit": "mg/kg"}, {"measurement": "ED50", "setting": "Mus musculus [4]", "value": 3.5, "unit": "mg/kg"}, {"measurement": "inhibition in vivo at 3.5 mg/kg", "setting": "Mus musculus [10]", "value": 56.6, "unit": "%"}]}
{"smiles": "CCN1C[C@]2(OC(=O)c3ccccc3NC(=O)c3ccc(OC(C)C)cc3)CC[C@H](OC)[C@]34C1[C@H](C[C@H]23)[C@@]1(O)C[C@H](OC)[C@H]2C[C@@H]4[C@]1(O)[C@H]2OC", "values": [{"measurement": "inhibition in vivo at 10 mg/kg", "setting": "Mus musculus [2]", "value": 51.1, "unit": "%"}, {"measurement": "LD50 at 24 h", "setting": "[3]", "value": 196, "unit": "mg/kg"}, {"measurement": "ED50", "setting": "Mus musculus [4]", "value": 8.1, "unit": "mg/kg"}, {"measurement": "selectivity ratio", "setting": "[8]", "value": 24.2}]}
{"smiles": "CCN1C[C@]2(OC(=O)c3ccccc3NS(=O)(=O)c3ccccn3)CC[C@H](OC)[C@]34C1[C@H](C[C@H]23)[C@@]1(O)C[C@H](OC)[C@H]2C[C@@H]4[C@]1(O)[C@H]2OC", "values": [{"measurement": "Activity", "setting": "[1]", "value": 88.42, "unit": "%"}, {"measurement": "inhibition in vivo at 10 mg/kg", "setting": "Mus musculus [2]", "value": 71.2, "unit": "%"}, {"measurement": "LD50 at 24 h", "setting": "[3]", "value": "> 400", "unit": "mg/kg"}, {"measurement": "ED50", "setting": "Mus musculus [4]", "value": 4.7, "unit": "mg/kg"}, {"measurement": "Drug metabolism", "setting": "[5]", "value": "Metabolite_Detected"}, {"measurement": "Activity", "setting": "[6]", "value": 73.6, "unit": "%"}, {"measurement": "Drug metabolism", "setting": "[7]", "value": "Metabolite_Detected"}, {"measurement": "selectivity ratio", "setting": "[8]", "value": "> 85.1"}, {"measurement": "Activity", "setting": "[9]", "value": 95.97, "unit": "%"}]}
{"smiles": "CCOc1ccc(C(=O)Nc2ccccc2C(=O)O[C@@]23CC[C@H](OC)[C@]45C([C@H](C[C@H]24)[C@@]2(O)C[C@H](OC)[C@H]4C[C@@H]5[C@]2(O)[C@H]4OC)N(CC)C3)cc1", "values": [{"measurement": "Activity", "setting": "[1]", "value": 80.07, "unit": "%"}, {"measurement": "inhibition in vivo at 10 mg/kg", "setting": "Mus musculus [2]", "value": 62.8, "unit": "%"}, {"measurement": "LD50 at 24 h", "setting": "[3]", "value": 315, "unit": "mg/kg"}, {"measurement": "ED50", "setting": "Mus musculus [4]", "value": 6.6, "unit": "mg/kg"}, {"measurement": "Activity", "setting": "[6]", "value": 76.45, "unit": "%"}, {"measurement": "selectivity ratio", "setting": "[8]", "value": 47.7}, {"measurement": "Activity", "setting": "[9]", "value": 79.38, "unit": "%"}]}
{"smiles": "CCN1C[C@]2(OC(=O)c3ccccc3NC(=O)CC(C)(C)C)CC[C@H](OC)[C@]34C1[C@H](C[C@H]23)[C@@]1(O)C[C@H](OC)[C@H]2C[C@@H]4[C@]1(O)[C@H]2OC", "values": [{"measurement": "inhibition in vivo at 3.5 mg/kg", "setting": "Mus musculus [10]", "value": 24.9, "unit": "%"}]}
